According to patent EP2794556B1, “BIS-(ARYL/HETEROARYL)-METHYLENE COMPOUNDS, PHARMACEUTICAL COMPOSITIONS CONTAINING SAME AND THEIR USE FOR TREATING CANCER” (Gleason, James L., priority 2011, dated 2013):

Experiments:
[1] = tested on: U251; assay: NCI 60 cell panel
[2] = tested on: OVCAR-3; assay: NCI 60 cell panel
[3] = tested on: ACHN; assay: NCI 60 cell panel
[4] = tested on: OVCAR-5; assay: NCI 60 cell panel
[5] = tested on: SF-539; assay: NCI 60 cell panel
[6] = tested on: SW-620; assay: NCI 60 cell panel
[7] = tested on: SK-MEL-28; assay: NCI 60 cell panel
[8] = tested on: SNB-19; assay: NCI 60 cell panel
[9] = tested on: BT-549; assay: NCI 60 cell panel
[10] = tested on: SR; assay: NCI 60 cell panel
[11] = tested on: MDA-MB-435; assay: NCI 60 cell panel
[12] = tested on: HCT-116; assay: NCI 60 cell panel
[13] = tested on: HS 578T; assay: NCI 60 cell panel
[14] = tested on: OVCAR-4; assay: NCI 60 cell panel
[15] = tested on: NCI/ADR-RES; assay: NCI 60 cell panel
[16] = tested on: SN12C; assay: NCI 60 cell panel
[17] = tested on: SCC4 cells; assay: EdU cell growth assay
Method: EdU cell growth assay. Click-iT EdU Alexa Fluor high-throughput imaging (HCS) assay for cell proliferation. HCS assays were performed on AT84 mouse squamous carcinoma cell line (ATCC) following the manufacturer's instruction (Molecular Probes, Invitrogen). […] All samples were in triplicate.

[18] = tested on: SK-OV-3; assay: NCI 60 cell panel
[19] = tested on: HCT-15; assay: NCI 60 cell panel

CCC(CC)(c1ccc(OCC(=O)NO)c(C)c1)c1ccc(OCC(O)C(C)(C)C)c(C)c1 (racemic) [JF-B01, N-Hydroxy-2-(4-(3-(4-(2-hydroxy-3,3-dimethylbutoxy)-3-methylphenyl)pentan-3-yl)-2-methylphenoxy)acetamide]
TGI ([1]; CNS Cancer, U251): 1.23E-5
GI50 ([1]; Homo sapiens, U-251): 2.34 µM
CC50 ([1]; Homo sapiens, U-251, read-out: LC50): 40 µM
GI50 ([2]; Homo sapiens, OVCAR-3): 1.73 µM
CC50 ([2]; Homo sapiens, OVCAR-3, read-out: LC50): 21.6 µM
TGI ([2]; Ovarian Cancer, OVCAR-3): 5.59E-6
GI50 ([3]; Homo sapiens): 3.2 µM
CC50 ([3]; Homo sapiens, read-out: LC50): 35.6 µM
TGI ([3]; Renal Cancer): 1.27E-5
GI50 ([4]; Homo sapiens, OVCAR-5): 12.9 µM
CC50 ([4]; Homo sapiens, OVCAR-5, read-out: LC50): 50.6 µM
TGI ([4]; Ovarian Cancer, OVCAR-5): 2.56E-5
TGI ([5]; CNS Cancer, SF-539): 2.74E-5
GI50 ([5]; Homo sapiens, SF-539): 13.7 µM
CC50 ([5]; Homo sapiens, SF-539, read-out: LC50): 54.9 µM
TGI ([6]; Colon Cancer, SW-620): 1.25E-5
GI50 ([6]; Homo sapiens, SW-620): 2.3 µM
CC50 ([6]; Homo sapiens, SW-620, read-out: LC50): 35.4 µM
GI50 ([7]; Homo sapiens, SK-MEL-28): 4.75 µM
CC50 ([7]; Homo sapiens, SK-MEL-28, read-out: LC50): 42.5 µM
TGI ([7]; Melanoma, SK-MEL-28): 1.75E-5
TGI ([8]; CNS Cancer, SNB-19): 1.12E-5
GI50 ([8]; Homo sapiens, SNB-19): 2.41 µM
CC50 ([8]; Homo sapiens, SNB-19, read-out: LC50): 33.5 µM
TGI ([9]; Breast Cancer, BT-549): 7.74E-6
GI50 ([9]; Homo sapiens, BT-549): 2.03 µM
CC50 ([9]; Homo sapiens, BT-549, read-out: LC50): 28.5 µM
GI50 ([10]; Homo sapiens): 1.21 µM
CC50 ([10]; Homo sapiens, read-out: LC50): 24.9 µM
TGI ([10]; Leukemia): 3.91E-6
GI50 ([11]; Homo sapiens, MDA-MB-435): 2.08 µM
CC50 ([11]; Homo sapiens, MDA-MB-435, read-out: LC50): 16.7 µM
TGI ([11]; Melanoma, MDA-MB-435): 5.20E-6
TGI ([12]; Colon Cancer, HCT-116): 1.09E-5
GI50 ([12]; Homo sapiens, HCT-116): 2.13 µM
CC50 ([12]; Homo sapiens, HCT-116, read-out: LC50): 33.4 µM
TGI ([13]; Breast Cancer, HS 578T): 2.65E-5
GI50 ([13]; Homo sapiens, Hs-578T): 8.8 µM
CC50 ([13]; Homo sapiens, Hs-578T, read-out: LC50): 72.5 µM
GI50 ([14]; Homo sapiens, OVCAR-4): 1.88 µM
CC50 ([14]; Homo sapiens, OVCAR-4, read-out: LC50): 32 µM
TGI ([14]; Ovarian Cancer, OVCAR-4): 9.44E-6
GI50 ([15]; Homo sapiens): 4.39 µM
CC50 ([15]; Homo sapiens, read-out: LC50): 41.9 µM
TGI ([15]; Ovarian Cancer): 1.67E-5
GI50 ([16]; Homo sapiens): 3.87 µM
CC50 ([16]; Homo sapiens, read-out: LC50): 40.3 µM
TGI ([16]; Renal Cancer): 1.59E-5
inhibition of proliferation, EdU incorporation ([17]; 1,25D-resistant SCC4 cells, Fig. 2e, f): completely
EdU incorporation at higher concentrations ([17]; SCC4 cells, higher concentrations): completely abolished EdU incorporation
GI50 ([18]; Homo sapiens, SK-OV-3): 12.2 µM
CC50 ([18]; Homo sapiens, SK-OV-3, read-out: LC50): 49.6 µM
TGI ([18]; Ovarian Cancer, SK-OV-3): 2.46E-5
TGI ([19]; Colon Cancer, HCT-15): 1.12E-5
GI50 ([19]; Homo sapiens, HCT-15): 1.94 µM
CC50 ([19]; Homo sapiens, HCT-15, read-out: LC50): 33.6 µM
